Data published in PMC5011342, “A high throughput drug screening assay to identify compounds that promote oligodendrocyte differentiation using acutely dissociated and purified oligodendrocyte precursor cells” (BMC Research Notes, 2016).
Where two headings read alike, the source gives them in different places.

How the values were obtained:
[1] = system: acutely dissociated and purified rat OPCs; test: Acute OL differentiation assay (MBP expression/cell, immunofluorescent image quantification); type: cell-based; details: sheet "All OLga data"; for activation at 0.08 µM / activation at 0.4 µM / activation at 2 µM / activation at 10 µM: Rattus norvegicus
How it was run: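 This acute differentiation assay used purified rat OPCs from postnatal day 6–7 pups, seeded into PDL/laminin-coated 96-well plates in differentiation medium lacking PDGF and FGF. Compounds were applied in quadruplicate after a 1–2 h preincubation at 37 °C, 10 % CO2, with 0.1 % DMSO negative and 40 ng/ml T3 positive controls in eight wells. After fixation on DIV4, anti-MBP immunofluorescence images yielded MBP expression/cell.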

expanded OPCs = test: cells; details: for viability at 0.1 µM / viability at 1 µM / viability at 10 µM: Rattus norvegicus, 72 h
How it was run: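 Toxicity screen: compounds added at 0.1, 1 and 10 µM to PDGF-AA-expanded OPCs in 96-well plates, 3-day incubation at 37 °C, 10% CO2, then alamarBlue 1:10 for 4 h with fluorescence readout. Results set screening doses of 10/2, 2/0.4 or 0.4/0.08 µM.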

[2] = read-out: 0.1 µM (% DMSO), alamarBlue viability, NCC library compound at 0.1 µM, sheet "All Tox data"
[3] = read-out: 1 µM (% DMSO), alamarBlue viability, NCC library compound at 1 µM, sheet "All Tox data"
[4] = read-out: 10 µM (% DMSO), alamarBlue viability, NCC library compound at 10 µM, sheet "All Tox data"
[5] = 2 uM test compound, relative to quetiapine, read-out: OL differentiation, 2 uM (% Quet)
[6] = 10 uM test compound, relative to quetiapine, read-out: OL differentiation, 10 uM (% Quet)
[7] = read-out: 0.1 µM (% DMSO), alamarBlue viability of expanded OPCs, compound at 0.1 µM, sheet All Tox data
[8] = read-out: 1 µM (% DMSO), alamarBlue viability of expanded OPCs, compound at 1 µM, sheet All Tox data
[9] = read-out: 10 µM (% DMSO), alamarBlue viability of expanded OPCs, compound at 10 µM, sheet All Tox data
[10] = test compound at 2 uM, MBP expression relative to quetiapine, NCC library screen, read-out: 2 uM (% Quet)
[11] = test compound at 10 uM, MBP expression relative to quetiapine, NCC library screen, read-out: 10 uM (% Quet)
[12] = alamarBlue viability of expanded OPCs, compound at 0.1 µM, relative to DMSO control
[13] = alamarBlue viability of expanded OPCs, compound at 1 µM, relative to DMSO control
[14] = alamarBlue viability of expanded OPCs, compound at 10 µM, relative to DMSO control
[15] = test compound at 0.08 uM, NCC library screen, relative to quetiapine, read-out: 0.08 uM (% Quet)
[16] = test compound at 0.4 uM, NCC library screen, relative to quetiapine, read-out: 0.4 uM (% Quet)
[17] = test compound at 2 uM, NCC library screen, relative to quetiapine, read-out: 2 uM (% Quet)
[18] = test compound at 10 uM, NCC library screen, relative to quetiapine, read-out: 10 uM (% Quet)

Structure (SMILES)	viability at 0.1 µM (expanded OPCs; [2])	viability at 1 µM (expanded OPCs; [3])	viability at 10 µM (expanded OPCs; [4])	activation at 2 µM [1, 5]	activation at 10 µM [1, 6]	viability at 0.1 µM (expanded OPCs; [7])	viability at 1 µM (expanded OPCs; [8])	viability at 10 µM (expanded OPCs; [9])	0.1 µM (% DMSO) (expanded OPCs; [12])	1 µM (% DMSO) (expanded OPCs; [13])	10 µM (% DMSO) (expanded OPCs; [14])	other results
[H]/N=C(/NCCCCC)N/N=C/c1c[nH]c2ccc(OC)cc12 [Tegaserod]	88.5%	33.1%	11.5%									activation at 0.08 µM ([1]; 0.08 uM test compound, relative to quetiapine, read-out: OL differentiation, 0.08 uM (% Quet)): -15.2%; activation at 0.4 µM ([1]; 0.4 uM test compound, relative to quetiapine, read-out: OL differentiation, 0.4 uM (% Quet)): -63.1%
CC(=O)SCC(Cc1ccccc1)C(=O)NCC(=O)OCc1ccccc1 (stereo not shown) [Racecadotril]				23%	56.4%	87.4%	92.9%	77.6%				
CCn1cc(C(=O)O)c(=O)c2ccc(C)nc21 [Nalidixic Acid]									93.0 % DMSO	93.1 % DMSO	92.5 % DMSO	activation at 2 µM [1, 10]: -14.9%; activation at 10 µM [1, 11]: -17.1%
OC(c1cc(C(F)(F)F)nc2c(C(F)(F)F)cccc12)C1CCCCN1 (stereo not shown) [Mefloquine]									39.0 % DMSO	11.0 % DMSO	7.4 % DMSO	activation at 0.08 µM ([1]; test compound at 0.08 uM, MBP expression relative to quetiapine, NCC library screen, read-out: 0.08 uM (% Quet)): -20.5%; activation at 0.4 µM ([1]; test compound at 0.4 uM, MBP expression relative to quetiapine, NCC library screen, read-out: 0.4 uM (% Quet)): -134%
O=c1c2ccccc2[se]n1-c1ccccc1 [Ebselen]	61.7%	30.7%	10.1%									activation at 0.08 µM [1, 15]: 131%; activation at 0.4 µM [1, 16]: -95.7%
Nc1cc(N2CCCCC2)nc(N)[n+]1[O-] [Minoxidil]									93.0 % DMSO	102.8 % DMSO	89.5 % DMSO	activation at 2 µM [1, 10]: 13.4%; activation at 10 µM [1, 11]: -4.2%
O=C(CCCN1CC=C(n2c(=O)[nH]c3ccccc32)CC1)c1ccc(F)cc1 [Droperidol]	90.8%	97.2%	71.6%	7.3%	-13.2%							
Cc1sc(N)c(C(=O)c2cccc(C(F)(F)F)c2)c1C [PD 81723]												0.4 uM (% Quet) ([1]; test compound at 0.4 uM, NCC library screen, relative to quetiapine): 4.2 % Quet; 2 uM (% Quet) ([1]; test compound at 2 uM, NCC library screen, relative to quetiapine): -21.8 % Quet; 0.1 µM (% DMSO) (expanded OPCs; alamarBlue viability, NCC library compound at 0.1 µM, sheet "All Tox data"): 90.2 % DMSO; 1 µM (% DMSO) (expanded OPCs; alamarBlue viability, NCC library compound at 1 µM, sheet "All Tox data"): 90.8 % DMSO; 10 µM (% DMSO) (expanded OPCs; alamarBlue viability, NCC library compound at 10 µM, sheet "All Tox data"): 57.3 % DMSO
COc1ccc(-c2oc3c(CC=C(C)C)c(O[C@@H]4O[C@H](CO)[C@@H](O)[C@H](O)[C@H]4O)cc(O)c3c(=O)c2O[C@@H]2O[C@@H](C)[C@H](O)[C@@H](O)[C@H]2O)cc1 [Icariin]				6.3%	9.8%	86.4%	88.3%	88.8%				
C#CCN(C)[C@H](C)Cc1ccccc1 [Selegiline]				10.1%	19.7%	85.8%	88.8%	91.2%	101.6 % DMSO	93.8 % DMSO	94.0 % DMSO	activation at 2 µM [1, 17]: 0.64%; activation at 10 µM [1, 18]: 11.2%
COc1ccc(Cl)cc1C(=O)NCCc1ccc(S(=O)(=O)NC(=O)NC2CCCCC2)cc1 [Glyburide]									95.4 % DMSO	91.5 % DMSO	85.2 % DMSO	activation at 2 µM [1, 17]: -19.5%; activation at 10 µM [1, 18]: -20.2%
CN1[C@@H]2CC[C@H]1C[C@@H](OC(=O)c1c[nH]c3ccccc13)C2 [Tropisetron]				37.9%	16.9%	98.4%	90.9%	82.5%				
NS(=O)(=O)Cc1noc2ccccc12 [Zonisamide]									89.3 % DMSO	92.8 % DMSO	87.8 % DMSO	activation at 2 µM [1, 10]: 5.9%; activation at 10 µM [1, 11]: 4.3%
Oc1cc2c(cc1O)[C@H]1c3ccccc3CN[C@@H]1CC2 (racemic) [Dihydrexidine]	81.4%	37.9%	9.8%									activation at 0.08 µM [1, 15]: -13.3%; activation at 0.4 µM [1, 16]: -27.6%
c1ccc2[nH]c(-c3cscn3)nc2c1 [Thiabendazole]	98%	97.1%	109%									activation at 2 µM [1, 17]: 14.9%; activation at 10 µM [1, 18]: 36.7%
Clc1ccc2c(c1)C(N1CCNCC1)=Nc1ccccc1O2 [Amoxapine]	62%	40%	19.2%									activation at 0.08 µM [1, 15]: 13%; activation at 0.4 µM [1, 16]: -10.8%
Cc1ncc([N+](=O)[O-])n1CCO [Metronidazole]				0.09%	24.8%	84.6%	88.7%	79.3%				
CCN(CC)CCNC(=O)c1ccc(N)cc1 [Procainamide]	106%	111%	120%									activation at 2 µM [1, 17]: 0.4%; activation at 10 µM [1, 18]: 19.7%
COc1cc(OC)c(C(=O)CCCN2CCCC2)c(OC)c1 [Buflomedil]				-16.4%	24.4%	105%	97.6%	124%				
CN1CC(=O)N2[C@H](c3ccc4c(c3)OCO4)c3[nH]c4ccccc4c3C[C@@H]2C1=O [Tadalafil]				21.4%	-16%	99.2%	93%	93.9%				
CC(CN1c2ccccc2Sc2ccccc21)N(C)C (stereo not shown) [Promethazine]									68.4 % DMSO	33.2 % DMSO	19.9 % DMSO	activation at 0.08 µM [1, 15]: -26.4%; activation at 0.4 µM [1, 16]: -33.6%
O=C1CCC(N2C(=O)c3ccccc3C2=O)C(=O)N1 (stereo not shown) [Thalidomide]	110%	92.4%	99.3%									activation at 2 µM [1, 17]: -9.1%; activation at 10 µM [1, 18]: -26.7%
